Measured values taken from US9132138B2, “Method for the treatment of multiple sclerosis” (CASI Pharmaceuticals, Inc., priority 2012, dated 2015).

Key:
ERα = target: T1, ERα (Homo sapiens, UniProt P03372); conditions: cited from earlier work
T1 sequence (P03372 1-595): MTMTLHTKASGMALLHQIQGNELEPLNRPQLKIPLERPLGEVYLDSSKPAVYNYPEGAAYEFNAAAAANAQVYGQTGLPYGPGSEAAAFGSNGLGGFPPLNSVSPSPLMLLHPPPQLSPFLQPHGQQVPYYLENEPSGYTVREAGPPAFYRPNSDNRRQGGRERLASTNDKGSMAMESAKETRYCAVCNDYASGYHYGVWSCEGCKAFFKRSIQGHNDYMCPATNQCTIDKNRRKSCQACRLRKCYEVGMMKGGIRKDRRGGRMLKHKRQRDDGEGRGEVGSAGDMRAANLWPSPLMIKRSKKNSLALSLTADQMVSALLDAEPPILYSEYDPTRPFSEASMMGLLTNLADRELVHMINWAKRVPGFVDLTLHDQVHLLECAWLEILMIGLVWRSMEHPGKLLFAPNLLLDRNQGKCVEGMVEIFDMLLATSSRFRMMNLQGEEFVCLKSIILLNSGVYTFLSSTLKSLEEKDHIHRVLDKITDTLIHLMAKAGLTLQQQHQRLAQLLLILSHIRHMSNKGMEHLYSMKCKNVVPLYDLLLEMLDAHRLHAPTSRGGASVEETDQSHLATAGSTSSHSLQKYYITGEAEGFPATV

NFAT = assay: Gaussia luciferase reporter assay in Jurkat cells; type: cell-based; conditions: anti-CD3/28, 5 hours
Description: (§1) FIG. 4A, purified T cells pre-treated with 2ME2 (50 μM) were stimulated with PMA/iono for the indicated times. Whole cell lysates were subjected to immunoblotting to detect the indicated proteins. FIG. 4B, nuclear lysates were analyzed by EMSA to detect DNA binding to NF-κB or AP-1. FP, free probe. FIG. 4C, purified T cells or B cells were pre-treated with vehicle (−) or 50 μM 2ME2 (+) and were stimulated with PMA/iono for 30 or 60 minutes (left), or with anti-CD3/28 or anti-IgM/CD40 for 24 hours (right). Nuclear fractions of lymphocytes were analyzed by immunoblotting to detect nuclear translocation of NFATc1. Lamin A, nuclear protein loading control. NS; non-specific band. […]
(§2) Luciferase Assays were performed using Jurkat cells harboring a stably integrated Gaussia-luciferase reporter gene under the control of NF-κB or NFAT binding sites (Termed NFAT/NF-κB-GLuc reporter Jurkat). Gaussia luciferase contains a secretion peptide sequence mediating quantitative secretion of active enzyme into the surrounding medium. […] Luciferase activity was measured in 96-well plates using a Orion L microplate Luminometer (Berthold Detection Systems) with an integration time of 3.0 seconds. In parallel, cell viability was determined using the CellTiter-Glo® Luminescent Cell Viability Assay (Promega) and normalized Gluc activity was calculated as the ratio between Gluc activity and cell viability counts.

NF-κB = assay: Gaussia luciferase reporter assay in Jurkat cells; type: cell-based; conditions: anti-CD3/28, 5 hours
Description: as §1, §2

ERβ = ERβ (Homo sapiens, UniProt Q92731); conditions: cited from earlier work
activated B cells = assay: B cell activation markers CD25 and CD69; type: cell-based, C57/BL6 mice
Description: Cells were pre-incubated with various concentrations of 2ME2 (Entremed) or vehicle (DMSO) for 30 minutes at 37° C.
Purified CD4^+ T cells were stimulated with plate-bound anti-CD3 (clone 2C11, BD, 10 ng/ml) plus anti-CD28 (clone 37.51, BD, 100 ng/ml). Purified B220+ B cells were stimulated with anti-IgM (Jackson, 5 μg/ml), anti-CD40 (clone 3/20, BD, 5 μg/ml) or LPS (Sigma, 20 μg/ml) for the times indicated in FIG. 3. CD25 and CD69 expression was determined by flow cytometry (FACSCanto II, BD) and analyzed using FloJo software (Treestar Inc). Proliferation was assessed by 3H-thymidine incorporation. Viability and upregulation of cell surface markers on activated T cells were assessed by flow cytometry using Annexin V and propridium iodide. Human Peripheral blood mononuclear cells (PBMC) were isolated using Mono-Poly Resolving Medium (MP Biomedical) according to the manufacturer's protocols and activated with anti-CD3 (clone UCHT1) and anti-CD28 (clone CD28.2).

NFATc1 = NFATc1 nuclear translocation by immunoblotting of nuclear fractions; type: cell-based, C57/BL6 mice
Description: FIG. 4A, purified T cells pre-treated with 2ME2 (50 μM) were stimulated with PMA/iono for the indicated times. Whole cell lysates were subjected to immunoblotting to detect the indicated proteins. FIG. 4B, nuclear lysates were analyzed by EMSA to detect DNA binding to NF-κB or AP-1. FP, free probe. FIG. 4C, purified T cells or B cells were pre-treated with vehicle (−) or 50 μM 2ME2 (+) and were stimulated with PMA/iono for 30 or 60 minutes (left), or with anti-CD3/28 or anti-IgM/CD40 for 24 hours (right). Nuclear fractions of lymphocytes were analyzed by immunoblotting to detect nuclear translocation of NFATc1. Lamin A, nuclear protein loading control. NS; non-specific band. For FIGS. 4A-4C, data are representative of at least two independent experiments. FIG. 4D, stably transfected NFAT and NF-κB Jurkat luciferase reporter cell lines were preincubated with 2ME2 for 30 minutes, and stimulated via crosslinking of anti-CD3/28 antibodies with goat anti-mouse antibodies (GaM). 5 hours later, secreted luciferase activity indicates relative transcriptional activity. Data is reported as normalized luciferase activity and is representative of 3 independent experiments.
T or B cells pre-incubated with vehicle or 2ME2 (50 μM) were stimulated with PMA (10 ng/ml)+iono (50 ng/ml); plate-bound anti-CD3 (30 ng/ml)+anti-CD28 (100 ng/ml); or anti-IgM (1 μg/ml)+anti-CD40 (1 μg/ml). Nuclear extracts (5 μg protein) were immunoblotted with anti-NFATc1 (clone 7A6, Santa Cruz) and anti-Lamin A (clone H-102, Santa Cruz).

[1] = system: SEB-induced cytokine production; design: species or system C57/BL6 mice; conditions: mouse, in vivo

Chain of ERβ (Q92731 whole entry, species assumed): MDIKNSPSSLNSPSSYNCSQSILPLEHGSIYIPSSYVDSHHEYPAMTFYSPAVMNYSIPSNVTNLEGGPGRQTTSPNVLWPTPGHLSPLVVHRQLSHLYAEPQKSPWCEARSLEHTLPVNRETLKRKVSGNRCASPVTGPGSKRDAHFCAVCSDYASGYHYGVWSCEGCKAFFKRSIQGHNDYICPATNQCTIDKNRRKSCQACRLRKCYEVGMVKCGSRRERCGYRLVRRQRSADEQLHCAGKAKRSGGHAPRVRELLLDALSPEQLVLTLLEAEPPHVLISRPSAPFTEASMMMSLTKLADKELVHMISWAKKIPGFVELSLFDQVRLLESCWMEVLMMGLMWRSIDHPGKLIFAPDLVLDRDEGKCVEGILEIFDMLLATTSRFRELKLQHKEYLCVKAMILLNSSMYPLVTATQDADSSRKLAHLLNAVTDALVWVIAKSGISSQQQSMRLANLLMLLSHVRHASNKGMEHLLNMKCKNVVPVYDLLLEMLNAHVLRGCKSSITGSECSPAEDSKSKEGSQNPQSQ

For COc1cc2c(cc1O)CC[C@@H]1[C@@H]2CC[C@]2(C)[C@@H](O)CC[C@@H]12 [2ME2, 2-Methoxyestradiol], the “lower affinity than estradiol for ERα” value (ERα) is given as 500 fold, the “transcriptional activation of NFAT via TCR ligation (normalized luciferase activity)” value (NFAT) is given as “dramatically inhibited” and the “NF-κB-dependent transcriptional activity (normalized luciferase activity)” value (NF-κB) is given as “no effect”. For the same compound, the “lower affinity than estradiol for ERβ” value (ERβ) was 3200 fold, the “up-regulation of CD25 in activated B cells” value (activated B cells) was “prevented” and the “up-regulation of CD69 in activated B cells” value (activated B cells) was “prevented”. For the same compound, the “NFATc1 in the nuclear fraction of T cells” value (NFATc1; 50 μM 2ME2, 30-60 minutes after PMA/iono stimulation) was “reduce the amount of NFATc1 present in the nuclear fraction”, the “NFATc1 in the nuclear fraction of T cells” value (NFATc1; 50 μM 2ME2, 24 hours after anti-CD3/28 stimulation) was “reduce the amount of NFATc1 present in the nuclear fraction” and the “NFATc1 in the nuclear fraction of B cells” value (NFATc1; 50 μM 2ME2, 24 hours after anti-IgM/CD40-stimulation) was “reduce the amount of NFATc1 present in the nuclear fraction”. The “serum IL-6” value [1] was “significantly less” and the “serum TNFα” value [1] was “significantly less”.
